From patent US20060004197A1, “Sulfonamide-based compounds as protein tyrosine kinase inhibitors” (priority 2004, published 2006)

How the values were obtained:
Format in all cases: biochemical
Conditions in all cases: NI = no inhibition at 100 μg/mL
Recombinant Csk = Recombinant Csk (Homo sapiens, UniProt P41240); experiment: Csk tyrosine kinase activity, poly E4Y / 32P-ATP phosphorylation assay
Recombinant human Src = target: T1, Recombinant human Src (Homo sapiens, UniProt P12931); experiment: Src tyrosine kinase activity, poly E4Y / 32P-ATP phosphorylation assay
T1 construct: made in house; host or cells: baculovirus-insect cell system
T1 sequence (P12931 whole entry): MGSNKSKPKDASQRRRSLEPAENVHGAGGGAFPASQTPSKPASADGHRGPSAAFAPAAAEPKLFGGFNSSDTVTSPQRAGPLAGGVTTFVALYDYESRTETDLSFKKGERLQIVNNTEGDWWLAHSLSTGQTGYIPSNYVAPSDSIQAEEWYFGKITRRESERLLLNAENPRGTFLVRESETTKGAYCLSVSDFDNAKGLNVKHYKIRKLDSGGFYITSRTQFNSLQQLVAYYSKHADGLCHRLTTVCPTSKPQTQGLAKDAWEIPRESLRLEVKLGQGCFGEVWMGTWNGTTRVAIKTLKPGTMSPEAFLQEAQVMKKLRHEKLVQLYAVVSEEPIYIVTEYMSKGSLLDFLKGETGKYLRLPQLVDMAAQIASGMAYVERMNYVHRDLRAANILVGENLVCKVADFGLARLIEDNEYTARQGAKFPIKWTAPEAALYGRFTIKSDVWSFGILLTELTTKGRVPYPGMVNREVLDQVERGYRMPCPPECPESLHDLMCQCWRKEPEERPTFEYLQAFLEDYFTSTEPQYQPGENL

FGF receptor (FGFr) = experiment: FGFr tyrosine kinase activity, poly E4Y / 32P-ATP phosphorylation assay

| IC50 (Recombinant Csk; Table 2, Formula I compounds) | IC50 (Recombinant human Src; Table 2, Formula I compounds) | IC50 (FGF receptor (FGFr); Table 2, Formula I compounds) | IC50 (Recombinant Csk; Table 3, Formula II compounds) | IC50 (Recombinant human Src; Table 3, Formula II compounds) | IC50 (FGF receptor (FGFr); Table 3, Formula II compounds) | IC50 (μM) FGFr (FGF receptor (FGFr); Table 3, Formula II compounds) | Structure (SMILES) |
| --- | --- | --- | --- | --- | --- | --- | --- |
| 4.1 µM | 1 µM | 2.7 µM | – | – | – | – | Cc1ccc(S(=O)(=O)Nc2cc(SCc3ccc(Cl)cc3)c([N+](=O)[O-])cc2NS(=O)(=O)c2ccc(C)cc2)cc1 [Compound 4q, N-[4-(4-chloro-benzylsulfanyl)-5-nitro-2-(4-toluenesulfonylamino)-phenyl]-4-toluenesulfonamide] |
| 4.2 µM | 0.65 µM | 1.9 µM | – | – | – | – | Cc1ccc(S(=O)(=O)Nc2cc(SCc3ccccc3Cl)c([N+](=O)[O-])cc2NS(=O)(=O)c2ccc(C)cc2)cc1 [Compound 4r, N-[4-(2-chloro-benzylsulfanyl)-5-nitro-2-(4-toluenesulfonylamino)-phenyl]-4-toluenesulfonamide] |
| 5.7 µM | 1.3 µM | 4.3 µM | – | – | – | – | COc1ccc(CSc2cc(NS(=O)(=O)c3ccc(C)cc3)c(NS(=O)(=O)c3ccc(C)cc3)cc2[N+](=O)[O-])cc1 [Compound 4s, N-[4-(4-methoxy-benzylsulfanyl)-5-nitro-2-(4-toluenesulfonylamino)-phenyl]-4-toluenesulfonamide] |
| 333 µM | 590 µM | 188 µM | – | – | – | – | CS(=O)(=O)Nc1cc(Sc2ccc(Cl)cc2)c([N+](=O)[O-])cc1NS(C)(=O)=O [Compound 4u, N-[5-(4-chloro-phenylsulfanyl)-2-methanesulfonylamino-4-nitro-phenyl]-methanesulfonamide] |
| 10.4 µM | 1.7 µM | 4.9 µM | – | – | – | – | Cc1ccc(S(=O)(=O)Nc2cc(-c3ccccc3)c([N+](=O)[O-])cc2NS(=O)(=O)c2ccc(C)cc2)cc1 [Compound 8, N-[5-nitro-4-phenyl-2-(4-toluenesulfonylamino)-phenyl]-4-toluenesulfonamide] |
| – | – | – | > 176 µM | 23 µM | 44 µM | – | CCc1ccc(S(=O)(=O)Nc2ccc(Oc3ccc(OC)cc3)cc2NS(=O)(=O)c2ccc(CC)cc2)cc1 [Compound 12a, 4-ethyl-N-[2-(4-ethyl-benzenesulfonylamino)-4-(4-methoxy-phenoxy)-phenyl]-benzenesulfonamide] |
| – | – | – | 77 µM | 6.7 µM | 10.6 µM | – | Cc1ccc(S(=O)(=O)Nc2ccc(Oc3ccc(CC(=O)O)cc3)cc2NS(=O)(=O)c2ccc(C)cc2)cc1 [Compound 12aa, {4-[3,4-bis(4-toluenesulfonylamino)-phenoxy]-phenyl}-acetic acid] |
| – | – | – | > 168 µM | 18.5 µM | 45 µM | – | COc1ccc(Oc2ccc(NS(=O)(=O)c3ccc(C(C)C)cc3)c(NS(=O)(=O)c3ccc(C(C)C)cc3)c2)cc1 [Compound 12b, 4-isopropyl-N-[2-(4-isopropyl-benzenesulfonylamino)-4-(4-methoxy-phenoxy)-phenyl]-benzenesulfonamide] |
| – | – | – | > 204 µM | > 204 µM | – | NI (NI = no inhibition at 100 μg/mL) | Cc1ccc(S(=O)(=O)Nc2ccc(OCCCO)cc2NS(=O)(=O)c2ccc(C)cc2)cc1 [Compound 12bb, N-[4-(3-hydroxy-propoxy)-2-(4-toluenesulfonylamino)-phenyl]-4-toluenesulfonamide] |
| – | – | – | 95 µM | 8.6 µM | 19 µM | – | COc1ccc(Oc2ccc(NS(=O)(=O)c3ccc(Cl)cc3)c(NS(=O)(=O)c3ccc(Cl)cc3)c2)cc1 [Compound 12c, 4-chloro-N-[2-(4-chloro-benzenesulfonylamino)-4-(4-methoxy-phenoxy)-phenyl]-benzenesulfonamide] |
| – | – | – | 73 µM | 24 µM | 35 µM | – | COc1ccc(Oc2ccc(NS(=O)(=O)c3ccc(F)cc3)c(NS(=O)(=O)c3ccc(F)cc3)c2)cc1 [Compound 12d, 4-fluoro-N-[2-(4-fluoro-benzenesulfonylamino)-4-(4-methoxy-phenoxy)-phenyl]-benzenesulfonamide] |
| – | – | – | > 144 µM | 19 µM | 46 µM | – | COc1ccc(Oc2ccc(NS(=O)(=O)c3ccc(Oc4ccccc4)cc3)c(NS(=O)(=O)c3ccc(Oc4ccccc4)cc3)c2)cc1 [Compound 12e, N-[4-(4-methoxy-phenoxy)-2-(4-phenoxy-benzenesulfonylamino)-phenyl]-4-phenoxy-benzenesulfonamide] |
